Test results: patent publication US20230372277A1, “COMPOSITION FOR PROMOTING HAIR GROWTH AND/OR INHIBITING HAIR LOSS” (priority 2020, published 2023)
Marks after values point to notes of the source that are not given here.

Legend:
hair follicles [1] = experiment: Density of hair follicles in skin (number in 1 mm^2); format: in vivo, male wistar albino rats; settings: testosterone-injected rats; for Rate of change compared to normal group (%) (density of hair follicles): Table 7, Equation 1, compounds or mixture oral 10 mg/kg daily 21 days
Experimental: The density of hair follicles was measured by counting the number of hair follicles in a unit area (1 mm^2).
Rate of change compared to normal group=(hair follicle density of negative control group or experimental group−hair follicle density of normal group)/hair follicle density of normal group (Equation 1)
(§1) The normal control group (control; normal group) is a group in which neither testosterone nor the extract is administered, and the negative control group (Testosterone; T) is a group in which only testosterone is administered.
as §1
As a comparative group, the mixture was administered by the same method, and the administration method was a method of intraperitoneal administration (IP). The normal control group (control; normal group) is a group in which neither testosterone nor the extract is administered, and the negative control group (Testosterone; T) is a group in which only testosterone is administered.

hair follicles [2] = experiment: Ratio of anagen stage and telogen stage of hair follicles in skin; settings: for Rate of change compared to normal group (anagen/telogen ratio) / Anagen/telogen ratio / Anagen / Telogen: testosterone-injected rats
Experimental: Male wistar albino rats weight 180 to 240 g, February to March age were bred under the conditions of a constant light-dark cycle in which light was applied from 8 am to 8 pm, a temperature of 22 to 25° C., and a relative humidity of 60%. For the feed of experimental animals, a general pellet dry feed was used, and feed and water were allowed to be consumed at all times.
In addition, the broccoli extract and/or avocado extract prepared in Example 1 were orally administered for a total of 21 days daily so as to be a dose of 100 mg per 1 kg of the body weight of each experimental animal (in case of coadministration group, broccoli extract 67 mg/kg+avocado extract 33 mg/kg).
Rate of change compared to normal group=(anagen/telogen ratio of negative control group or experimental group−anagen/telogen ratio of normal group)/anagen/telogen ratio of normal group (Equation 2)

testosterone = experiment: Testosterone concentration in plasma (ELISA kit) of testosterone-injected rats; format: in vivo, male wistar albino rats; settings: for concentration of testosterone in plasma (FIG. 4a): testosterone-injected rats, compounds or mixture oral 10 mg/kg daily 21 days
Experimental: (§2) For 21 days, the testosterone solution and broccoli extract, avocado extract or broccoli and avocado extract were administered, and on the next day, before skin samples were collected, plasma from rats was extracted and the concentration of testosterone and DHT were measured using a testosterone and DHT ELISA kit (Arigo Biolaboratories, Taiwan) according to the manufacturer's instructions.

[3] = system: dihydrotestosterone (DHT); experiment: DHT concentration in plasma (ELISA kit) of testosterone-injected rats; format: in vivo, male wistar albino rats; settings: for concentration of DHT in plasma (FIG. 4b): testosterone-injected rats, compounds or mixture oral 10 mg/kg daily 21 days
Experimental: as §2

hair follicles [4] = experiment: Shape and length of hair follicles in haematoxylin and eosin stained dorsal skin; format: in vivo, male wistar albino rats; settings: testosterone-injected rats; for length of hair follicles (FIG. 5): compounds or mixture oral 10 mg/kg daily 21 days, compared to negative control (negative control compared to normal group)
Experimental: By staining the skin tissue of experimental animals, the shape change of hair follicles was investigated. […] After 24 hours, the skin sample was soaked in paraffin wax and sectioned to a uniform thickness of 10 μm, and hair follicles were stained with haematoxylin and eosin.

[5] = Table 7, compounds or mixture (SFN 8 + I3C 1 + β-sitosterol 1 mg/kg) oral 10 mg/kg daily 21 days, mean ± SEM, n = 15
[6] = Table 8, Equation 2, compounds or mixture oral 10 mg/kg daily 21 days
[7] = Table 8, compounds or mixture oral 10 mg/kg daily 21 days
[8] = Table 8, compounds or mixture oral 10 mg/kg daily 21 days, listed as Group B, 10 mg/kg
[9] = Table 8, compounds or mixture oral 10 mg/kg daily 21 days, listed as testosterone solution, 10 mg/kg
[10] = rats injected s.c. with testosterone 21 days, extracts oral 100 mg/kg daily 21 days (mixture BE 67 + AE 33 mg/kg), negative control compared to normal group

## C[S+]([O-])CCCCN=C=S (stereo not drawn) [sulforaphane]
Hair follicles [1]; 10 mg/kg
  Rate of change compared to normal group (%) (density of hair follicles): about 47%
Hair follicles [1]; listed as Group C, 10 mg/kg
  Rate of change compared to normal group (%) (density of hair follicles): +47.33%
Hair follicles [1]; [5]
  Density of hair follicles: 1.93 ± 0.102
Hair follicles [2]; [6]
  Rate of change compared to normal group (anagen/telogen ratio): −47.05%
Hair follicles [2]; [7]
  Anagen/telogen ratio: 1.03*
testosterone
  concentration of testosterone in plasma (FIG. 4a): significantly reduced
[3]
  concentration of DHT in plasma (FIG. 4b): significantly reduced
Hair follicles [4]
  length of hair follicles (FIG. 5): increased

## OCc1c[nH]c2ccccc12 [indole-3-carbinol]
Hair follicles [1]; 10 mg/kg
  Rate of change compared to normal group (%) (density of hair follicles): about 21%
Hair follicles [1]; listed as Group D, 10 mg/kg
  Rate of change compared to normal group (%) (density of hair follicles): +21.37%
Hair follicles [1]; [5]
  Density of hair follicles: 1.59 ± 0.74
Hair follicles [2]; [6]
  Rate of change compared to normal group (anagen/telogen ratio): −54.88%
Hair follicles [2]; [7]
  Anagen/telogen ratio: 0.87*
testosterone
  concentration of testosterone in plasma (FIG. 4a): significantly reduced
[3]
  concentration of DHT in plasma (FIG. 4b): significantly reduced
Hair follicles [4]
  length of hair follicles (FIG. 5): increased

## C[C@]12CC[C@H]3[C@@H](CCC4=CC(=O)CC[C@@]43C)[C@@H]1CC[C@@H]2O [Testosterone, testosterone]
Hair follicles [1]; Table 2, Equation 1, extracts oral 100 mg/kg daily 21 days
  Rate of change compared to normal group (hair follicle density): −30.53%
Hair follicles [1]; Table 2, number of hair follicles in 1 mm^2, extracts oral 100 mg/kg daily 21 days, mean ± SEM, n = 15
  Hair follicle density: 0.91 ± 0.069
Hair follicles [1]; Table 5, broccoli extracts by extraction solvent, same method as Example 3-2, mean ± standard error
  Hair follicle density: 0.98 ± 0.23
Hair follicles [1]
  Rate of change compared to normal group (%) (density of hair follicles): −30.53%
Hair follicles [1]; [5]
  Density of hair follicles: 0.91 ± 0.069
Hair follicles [1]; Table 9, Equation 1, mixtures at various mixing ratios, oral 10 mg/kg in total daily 21 days
  Rate of change compared to normal group (density of hair follicles): −21.6%
Hair follicles [1]; Table 9, SFN:I3C:β-sitosterol mixtures at various mixing ratios, oral 10 mg/kg in total daily 21 days, mean ± standard error
  Density of hair follicles: 0.98 ± 0.23
Hair follicles [2]; Table 3, Equation 2, extracts oral 100 mg/kg daily 21 days
  Rate of change compared to normal group (anagen/telogen ratio): −91.23%
Hair follicles [2]; Table 3, hair follicles in anagen stage, extracts oral 100 mg/kg daily 21 days, listed as Group 2, 100 mg/kg
  Anagen: 14.6
Hair follicles [2]; Table 3, hair follicles in anagen stage, extracts oral 100 mg/kg daily 21 days, listed as testosterone solution, 100 mg/kg
  Anagen: reduced
Hair follicles [2]; Table 3, hair follicles in telogen stage, extracts oral 100 mg/kg daily 21 days, listed as Group 2, 100 mg/kg
  Telogen: 85.4
Hair follicles [2]; Table 3, hair follicles in telogen stage, extracts oral 100 mg/kg daily 21 days, listed as testosterone solution, 100 mg/kg
  Telogen: increased
Hair follicles [2]; Table 3, extracts oral 100 mg/kg daily 21 days
  Anagen/telogen ratio: 0.171
Hair follicles [2]; [6]
  Rate of change compared to normal group (anagen/telogen ratio): −91.23%
Hair follicles [2]; [7]
  Anagen/telogen ratio: 0.17
Hair follicles [2]; [8]
  Anagen: 14.6
  Telogen: 85.4
Hair follicles [2]; [9]
  Anagen: reduced
  Telogen: increased
Hair follicles [2]; negative control group administered only with the testosterone solution s.c. 21 days
  anagen/telogen ratio reduced compared to the normal group: about 91%
testosterone; [10]
  concentration of testosterone in plasma (FIG. 1a): largely increased
testosterone
  concentration of testosterone in plasma (FIG. 4a): largely increased
[3]; [10]
  concentration of DHT in plasma (FIG. 1b): largely increased
[3]
  concentration of DHT in plasma (FIG. 4b): largely increased
Hair follicles [4]
  length of hair follicles (FIG. 5): largely reduced
Hair follicles [4]; extracts oral 100 mg/kg daily 21 days, H&E stained dorsal skin
  shape change of hair follicles (stained photograph, FIG. 2): many hair follicles in the telogen stage were found
Hair follicles [4]; extracts oral 100 mg/kg daily 21 days, extracts compared to negative control, negative control compared to normal group
  length of hair follicles (FIG. 3): largely reduced

## CC[C@H](CC[C@@H](C)[C@H]1CC[C@H]2[C@@H]3CC=C4C[C@@H](O)CC[C@]4(C)[C@H]3CC[C@]12C)C(C)C [β-sitosterol]
Hair follicles [1]; 10 mg/kg
  Rate of change compared to normal group (%) (density of hair follicles): about 68%
Hair follicles [1]; listed as Group E, 10 mg/kg
  Rate of change compared to normal group (%) (density of hair follicles): +67.56%
Hair follicles [1]; [5]
  Density of hair follicles: 2.195 ± 0.093
[3]
  concentration of DHT in plasma (FIG. 4b): significantly reduced
Hair follicles [4]
  length of hair follicles (FIG. 5): increased
